Data: PMC9785280, “Synthesis, Antiproliferative Evaluation and QSAR Analysis of Novel Halogen- and Amidino-Substituted Benzothiazoles and Benzimidazoles” (International Journal of Molecular Sciences, 2022)

Tests used:
[1] = tested on: human fibroblasts (BJ); test: MTT antiproliferative assay, normal BJ fibroblasts; assay type: cell-based; details: Homo sapiens, Fibroblast, 72 h, MTT, mean ± SD of three independent experiments; normal cells
Experimental: (§1) The growth inhibition activity was assessed according to the slightly modified procedure performed at the National Cancer Institute, Developmental Therapeutics Program.
(§2) Examined compounds were dissolved in DMSO (1 × 10^−2 M). The experiments were carried out on seven human tumor cell lines and two normal cell lines. The following cell lines were used: HeLa (human cervical adenocarcinoma; purchased from ATCC), CaCo-2 (human colorectal adenocarcinoma), HuT78 (T-cell lymphoma), THP-1 (acute monocytic leukemia), SW620 (colorectal adenocarcinoma, metastatic), MDA-MB-231 (human breast adenocarcinoma), HL60 (promyelocytic leukemia cell line), foreskin fibroblast cells (BJ) and MDCK1 (Madine–Darby canine kidney fibroblast like cells). MDCK1 cells were used between 24 and 26 passages.
(§3) Adherent cells were cultured in the Dulbecco’s modified Eagle medium—DMEM (Gibco, EU) supplemented with 10 % heat-inactivated fetal bovine serum (FBS, Gibco, EU), 2 mM glutamine, and 100 U/0.1 mg penicillin/streptomycin. Cells on suspension were cultured in RPMI 1640 (Gibco, EU) medium supplemented with 10 % FBS (Gibco, EU), 2 mM glutamine, 1 mM sodium pyruvate, 10 mM HEPES. Cells were grown in humidified atmosphere under the conditions of 37 °C/5% of CO2 gas in the CO2 incubator (IGO 150 CELLlife^TM, JOUAN, Thermo Fisher Scientific, Waltham, MA, USA). A erythrosin B (Sigma-Aldrich, St. Louis, MO, USA) dye exclusion method was used to assess cell viability before plating.
(§4) Adherent cells (HeLa, CaCo-2, MCF-7 and MDCK-1) were plated in 96-well flat bottom plates (Greiner, Frickenhausen, Austria) at a concentration of 2 × 10^4 cells/mL. Suspension cells (THP-1 and HuT78) were plated in 96-well microtiter plates (Sarstead, Newton, USA) at a concentration of 1 × 10^5 cells/mL. Twenty-four hours later, cells were treated with test agents in […] 10-fold dilutions ([…] to 10^−4 M) and incubated for further 72 h. Working dilutions were freshly prepared on the day of testing. The solvent was also tested for eventual inhibitory activity by adjusting its concentration to be the same as in working concentrations. After 72 h of incubation, the cell growth rate was evaluated by performing the MTT assay, which detects dehydrogenase activity in viable cells. For this purpose, upon completion of the incubation period, growth medium was discarded and 50 μL of MTT was added to each well at a concentration of 5 mg/mL. After four hours of incubation at 37 °C, water insoluble MTT-formazan crystals were dissolved in 150 μL of dimethyl-sulfoxide (DMSO) for adherent cells, and in 10 % SDS with 0.01 M/L HCl for cells grown in suspension. The absorbance (OD, optical density) was measured on a microplate reader (iMark, BIO RAD, Hercules, CA, USA) at 595 nm.
(§5) Percent of life cells was calculated as follows: % = OD (sample)–OD (background)/OD (control)–OD (background) × 100.
(§6) Optical density (OD) of background for adherent cells is the OD of MTT solution and DMSO; OD (background) for suspension cells is OD of the culture medium with MTT and 10% SDS with 0.01 M/L HCl; OD (control) is the OD of the cells growth without tested compounds.
(§7) Calculation of GI50 value curves and QC analysis is performed by using the Excel tools and GraphPadPrism software (La Jolla, CA), v. 5.03. Briefly, individual concentration effect curves are generated by plotting the logarithm of the concentration of tested compounds(X) vs. corresponding percent inhibition values (Y) using least squares fit. The best fit GI50 values are calculated using Log (inhibitor) versus normalized response—Variable slope equation, where Y Ľ 100/(1 ţ 10 ((LogIC50 _ X) * HillSlope)). QC criteria parameters (Z0, S:B, R2, HillSlope) were checked for every GI50 curve.

[2] = tested on: HuT78 (T-cell lymphoma) cells; test: MTT antiproliferative assay, HuT78; assay type: cell-based, human; details: for IC50: Homo sapiens, HuT78, 72 h, 72 h, MTT, mean ± SD of three independent experiments; for SI (BJ) HuT78: SI = IC50 BJ / IC50 HuT78; for SI (MDCK) HuT78: SI = IC50 MDCK1 / IC50 HuT78
Experimental: as §1, §2, §3, §4, §5, §6, §7

[3] = tested on: MDCK1 (Madin–Darby canine kidney) cells; test: MTT antiproliferative assay, non-tumor MDCK1 cells; assay type: cell-based; details: Canis lupus familiaris, MDCK1, 72 h, mean ± SD of three independent experiments, normal cells
Experimental: as §1, §2, §3, §4, §5, §6, §7

[4] = tested on: HeLa (cervical adenocarcinoma) cells; test: MTT antiproliferative assay, HeLa; assay type: cell-based; details: Homo sapiens, 72 h, mean ± SD of three independent experiments
Experimental: as §1, §2, §3, §4, §5, §6, §7

[5] = tested on: CaCo-2 (colon adenocarcinoma) cells; test: MTT antiproliferative assay, CaCo-2; assay type: cell-based, human; details: for IC50: Homo sapiens, Caco-2, 72 h, MTT, mean ± SD of three independent experiments
Experimental: as §1, §2, §3, §4, §5, §6
as §7, with “The best fit GI50 values are calculated using Log (inhibitor) versus normalized response—Variable slope equation, where Y Ľ 100/(1 ţ 10 ((LogIC50 _ X) * HillSlope)).” left out

| Compound | IC50 [1] [µM] | melting point [°C] | IC50 [2] [µM] | IC50 [3] [µM] | IC50 [4] [µM] | IC50 [5] [µM] | SI (BJ) HuT78 [2] | SI (MDCK) HuT78 [2] | SI (BJ) CaCo-2 ([5]; SI = IC50 BJ / IC50 CaCo-2) |
| --- | --- | --- | --- | --- | --- | --- | --- | --- | --- |
| O=C(COc1ccc(-c2nc3ccccc3s2)cc1)c1ccccc1 [17a, 2-(4-(2-Oxo-2-phenylethoxy)phenyl)benzothiazole] | > 100 | 150 to 155 | > 100 | > 100 | > 100 | > 100 | – | – | – |
| O=C(COc1ccc(-c2nc3ccc(Cl)cc3s2)cc1F)c1ccccc1 [15b, 6-Chloro-2-(3-fluoro-4-(2-oxo-2-phenylethoxy)phenyl)benzothiazole] | > 100 | 192 to 195 | > 100 | > 100 | > 100 | > 100 | – | – | – |
| Fc1cc(-c2nc3ccccc3s2)ccc1OCc1c[nH]nn1 [23b, 2-(3-Fluoro-4-((1H-1,2,3-triazol-4-yl)methoxy)phenyl)benzothiazole] | 40.5 ± 17.2 | 185 to 189 | 17.1 ± 7.7 | 27.4 ± 4.2 | 34.9 ± 14.8 | 56 ± 14.6 | 2.34 | 1.6 | – |
| COc1cc(-c2nc3ccccc3s2)ccc1OCc1ccccn1 [20c] | > 100 | 110 to 115 | 64.7 ± 11.3 | 85.9 ± 15.7 | > 100 | 89.2 ± 16.8 | 1.55 | 1.33 | 1.12 |
| Fc1cc(-c2nc3ccc(Cl)cc3s2)ccc1OCc1ccccn1 [18b] | > 100 | 211 to 215 | > 100 | 29.8 ± 17.7 | > 100 | > 100 | – | – | – |
| COc1cc(-c2nc3ccccc3s2)ccc1OCC(=O)c1ccccc1 [17c, 2-(3-Methoxy-4-(2-oxo-2-phenylethoxy)phenyl)benzothiazole] | > 100 | 184 to 186 | > 100 | 78 ± 27.8 | > 100 | > 100 | – | – | – |
| COc1cc(-c2nc3ccc(F)cc3s2)ccc1OCc1cn(Cc2ccccc2)nn1 [25c, 6-Fluoro-2-(3-methoxy-4-((1-benzyl-1H-1,2,3-triazol-4-yl)methoxy)phenyl)benzothiazole] | > 100 | 180 to 183 | > 100 | 22.8 ± 4.9 | > 100 | 77.6 ± 43.3 | – | – | – |
| COc1cc(-c2nc3ccc(Cl)cc3s2)ccc1OCc1cn(Cc2ccccc2)nn1 [24c, 6-Chloro-2-(3-methoxy-4-((1-benzyl-1H-1,2,3-triazol-4-yl)methoxy)phenyl)benzothiazole] | > 100 | 190 to 193 | 49.6 ± 38 | 41.1 ± 17.2 | 82.8 ± 32.3 | > 100 | 2.0 | – | – |
| COc1cc(-c2nc3ccc(F)cc3s2)ccc1OCC(=O)c1ccccc1 [16c, 6-Fluoro-2-(3-methoxy-4-(2-oxo-2-phenylethoxy)phenyl)benzothiazole] | > 100 | 178 to 181 | > 100 | 6.8 ± 6.2 | > 100 | > 100 | – | – | – |
| COc1cc(-c2nc3ccc(C4=NCCN4)cc3s2)ccc1OCC(=O)c1ccccc1.Cl [34c, 2-(3-Methoxy-4-(2-oxo-2-phenylethoxy)phenyl)-6-(4,5-dihydro-1H-imidazol-2-yl)benzothiazole hydrochloride] | 4 ± 0.1 | > 240 | 1.8 ± 0.7 | 2.1 ± 0.3 | 3.1 ± 0.2 | 6.3 ± 3 | – | – | – |
| Cl.c1ccc(Cn2cc(COc3ccc(-c4nc5ccc(C6=NCCN6)cc5s4)cc3)nn2)cc1 [37a, 2-(4-((1-Benzyl-1H-1,2,3-triazol-4-yl)methoxy)phenyl)-6-(4,5-dihydro-1H-imidazol-2-yl)benzothiazole hydrochloride] | 4.3 ± 3.6 | 153 to 156 | 1.6 ± 0.8 | 1.5 ± 0.3 | 3.6 ± 0.1 | 3.7 ± 1.5 | – | – | – |
| COc1cc(-c2nc3ccc(Cl)cc3s2)ccc1OCc1c[nH]nn1 [21c, 6-Chloro-2-(3-methoxy-4-((1H-1,2,3-triazol-4-yl)methoxy)phenyl)benzothiazole] | > 100 | 183 to 188 | 24.3 ± 6.5 | 43.2 ± 12.4 | > 100 | > 100 | 4.11 | 1.78 | – |
| c1ccc2sc(-c3ccc(OCc4c[nH]nn4)cc3)nc2c1 [23a, 2-(4-((1H-1,2,3-triazol-4-yl)methoxy)phenyl)benzothiazole] | > 100 | 204 to 207 | 19 ± 4 | 40.7 ± 5.7 | 52.4 ± 18.4 | 95.6 ± 6.6 | 5.26 | 2.14 | – |
| Fc1ccc2nc(-c3ccc(OCc4ccccn4)cc3)sc2c1 [19a] | > 100 | 165 to 170 | > 100 | 1.1 ± 0.2 | > 100 | > 100 | – | – | – |
| Fc1cc(-c2nc3ccc(Cl)cc3s2)ccc1OCc1cn(Cc2ccccc2)nn1 [24b, 6-Chloro-2-(3-fluoro-4-((1-benzyl-1H-1,2,3-triazol-4-yl)methoxy)phenyl)benzothiazole] | > 100 | 181 to 186 | > 100 | 8.8 ± 8.3 | > 100 | > 100 | – | – | – |
| c1ccc(COc2ccc(-c3nc4ccccc4s3)cc2)nc1 [20a, 2-(4-(Pyridin-2-ylmethoxy)phenyl)benzothiazole] | > 100 | 132 to 136 | > 100 | 65.7 ± 11.8 | > 100 | > 100 | – | – | – |
| O=C(COc1ccc(-c2nc3ccc(F)cc3s2)cc1F)c1ccccc1 [16b, 6-Fluoro-2-(3-fluoro-4-(2-oxo-2-phenylethoxy)phenyl)benzothiazole] | > 100 | 148 to 152 | 69.8 ± 15.5 | 25.8 ± 9.4 | > 100 | 89.3 ± 15.8 | 1.43 | – | – |
| Cl.Fc1cc(-c2nc3ccc(C4=NCCN4)cc3s2)ccc1OCc1cn(Cc2ccccc2)nn1 [37b, 2-(3-Fluoro-4-((1-benzyl-1H-1,2,3-triazol-4-yl)methoxy)phenyl)-6-(4,5-dihydro-1H-imidazol-2-yl)benzothiazole hydrochloride] | 5.3 ± 2.9 | > 240 | 2.1 ± 0.2 | 2.4 ± 0.3 | 4 ± 0.4 | 6.1 ± 2.7 | 2.52 | – | – |
